Reference: ChEMBL document CHEMBL2385066, “Cationic porphyrin-quinoxaline conjugate as a photochemically triggered novel cytotoxic agent” (Bioorg Med Chem Lett, 2013)
The source made the active and inactive calls. The rule behind the calls is not given here.

What was measured:
A549 [1] = assay: Ratio of TMPyP IC50 to compound IC50 for human A549 cells incubated for 24 hrs followed by exposure to visible-light for 10 mins measured after 24 hrs by WST assay; format: functional
A549 [2] = assay: Phototoxicity against human A549 cells incubated for 24 hrs followed by exposure to visible-light for 10 mins measured after 24 hrs by WST assay; format: functional, cell-based
A549 [3] = assay: Phototoxicity against human A549 cells incubated for 24 hrs followed by UV-irradiation for 10 mins measured after 24 hrs by WST assay; format: functional, cell-based
Escherichia coli [4] = assay: Induction of Escherichia coli pBR322 DNA cleavage assessed as conversion of supercoiled form to nicked circular form at 50 uM incubated for 30 mins followed by exposure to visible-light for 1 to 60 mins by agarose gel electrophoretic analysis
Escherichia coli [5] = assay: Induction of Escherichia coli pBR322 DNA cleavage assessed as conversion of supercoiled form to nicked circular form at 50 uM incubated for 30 mins followed by UV-irradiation for 1 to 60 mins by agarose gel electrophoretic analysis
DNA [6] = assay: Binding affinity to calf thymus DNA; format: nucleic-acid assay; settings: Bos taurus
DNA [7] = assay: Binding affinity to calf thymus DNA assessed as blue shift at 2 uM by fluorescence spectroscopic analysis; format: nucleic-acid assay; settings: Bos taurus
DNA [8] = assay: Binding affinity to calf thymus DNA assessed as decrease in fluorescence intensity at 2 uM by spectroscopic analysis; format: nucleic-acid assay; settings: Bos taurus
DNA [9] = assay: Binding affinity to calf thymus DNA assessed as hypochromicity at 2 uM by UV-vis absorption titration relative to control; format: nucleic-acid assay; settings: Bos taurus
DNA [10] = assay: Binding affinity to calf thymus DNA assessed as red shift in Soret region at 2 uM by UV-vis absorption titration; format: nucleic-acid assay; settings: Bos taurus
[11] = Homo sapiens, A549, light or radiation study

In the case of `C[n+]1ccc(-c2c3nc(c(-c4cc[n+](C)cc4)c4ccc([nH]4)c(-c4cc[n+](C)cc4)c4nc(c(-c5ccc(NC(=O)c6cnc7ccccc7n6)cc5)c5ccc2[nH]5)C=C4)C=C3)cc1.[I-].[I-].[I-]`, the “Ratio IC50” value (A549 [1]) is reported as 5, the IC50 (A549 [2]; a549) is reported as 0.06 µM and the IC50 (A549 [3]; a549) is reported as 0.16 µM. The Activity (Escherichia coli [4]) was “Active”, the Activity (Escherichia coli [5]) was “Active” and the K (DNA [6]) was 1.26 ×10⁶ /M. The Activity (DNA [7]) was “Active”, the Activity (DNA [8]) was “Active” and the Activity (DNA [9]) was 39%. The Activity (DNA [10]) was “Active”.

`O=C(Nc1ccc(-c2c3nc(c(-c4ccncc4)c4ccc([nH]4)c(-c4ccncc4)c4nc(c(-c5ccncc5)c5ccc2[nH]5)C=C4)C=C3)cc1)c1cnc2ccccc2n1` was tested, and the IC50 (A549 [2]; [11]) was 0.18 µM and the IC50 (A549 [3]; [11]) was 0.17 µM.

In the case of `O=C(Nc1ccc(-c2c3nc(c(-c4ccccc4)c4ccc([nH]4)c(-c4ccccc4)c4nc(c(-c5ccccc5)c5ccc2[nH]5)C=C4)C=C3)cc1)c1cnc2ccccc2n1`, the IC50 (A549 [2]; [11]) is reported as > 20 µM, the IC50 (A549 [3]; [11]) is reported as > 20 µM and the Activity (Escherichia coli [4]) is reported as “inactive”. The Activity (Escherichia coli [5]) was “Active” and the K (DNA [6]) was 1.98 ×10⁵ /M.

Compound `C[n+]1ccc(-c2c3nc(c(-c4cc[n+](C)cc4)c4ccc([nH]4)c(-c4cc[n+](C)cc4)c4ccc([nH]4)c(-c4cc[n+](C)cc4)c4nc2C=C4)C=C3)cc1` [TMPYP4] has an IC50 (A549 [2]; [11]) of 0.3 µM, an IC50 (A549 [3]; [11]) of 1.24 µM and a K (DNA [6]) of 2.5 ×10⁶ /M.

`C1=Cc2nc1c(-c1ccccc1)c1nc(c(-c3ccccc3)c3ccc([nH]3)c(-c3ccccc3)c3ccc([nH]3)c2-c2ccccc2)C=C1` [TETRAPHENYLPORPHYRIN] was tested, and the IC50 (A549 [2]; [11]) was > 20 µM and the IC50 (A549 [3]; [11]) was > 20 µM.
